{
  "source": "paper PMC10439028",
  "about": "“SGLT5 is the renal transporter for 1,5-anhydroglucitol, a major player in two rare forms of neutropenia” (Cellular and Molecular Life Sciences: CMLS, 2023)",
  "key": {"hSGLT5 Gly471Glu": {"biological_target": "T1, hSGLT5 Gly471Glu (Homo sapiens, UniProt A0PJK1, G471E)", "T1 construct": "pUB83-hSGLT5-iso2 as well as the various SGLT5 mutants obtained were used to transduce HEK293T cells; expressed in transfected cells; host or cells: HEK293T, lentiviral transduction (pUB83)", "T1 sequence (A0PJK1 1-596 G471E)": "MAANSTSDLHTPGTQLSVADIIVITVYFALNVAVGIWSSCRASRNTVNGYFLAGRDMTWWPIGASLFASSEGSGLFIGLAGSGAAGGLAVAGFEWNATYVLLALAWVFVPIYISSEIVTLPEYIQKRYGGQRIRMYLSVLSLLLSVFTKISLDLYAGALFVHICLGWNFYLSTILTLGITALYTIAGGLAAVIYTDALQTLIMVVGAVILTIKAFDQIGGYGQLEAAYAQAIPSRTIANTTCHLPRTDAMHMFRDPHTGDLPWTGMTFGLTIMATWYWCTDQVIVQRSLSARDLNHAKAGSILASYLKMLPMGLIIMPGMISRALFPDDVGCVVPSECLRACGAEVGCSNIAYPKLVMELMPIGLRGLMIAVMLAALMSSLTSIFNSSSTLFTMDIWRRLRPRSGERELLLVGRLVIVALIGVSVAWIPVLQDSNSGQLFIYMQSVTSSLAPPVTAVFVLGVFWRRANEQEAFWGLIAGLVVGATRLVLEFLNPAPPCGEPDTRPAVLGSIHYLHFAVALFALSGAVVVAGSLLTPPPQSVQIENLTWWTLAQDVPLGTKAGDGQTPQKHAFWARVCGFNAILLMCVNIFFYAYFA", "experiment": "1,5-AG uptake in HEK293T cells overexpressing SGLT5 variant Gly471Glu", "format": "cell-based", "experimental": "For a typical transporter experiment we proceeded as follows. […] To minimize cell loss during the various washing steps in the radioactive uptake experiments, the wells where the cells were seeded were previously coated with poly- D-lysine, which improved their adhesion to the plastic surface of the wells. For this, each well of the 24-well plates was treated with 200 µl of a 0.01% poly-L-lysine solution for 10 min, washed 3 times with 1 ml of sterilized water and left to dry for 2 h. Only then could the 24-well plates be seeded with the appropriate cell lines and cultured overnight at 37 °C in 5% CO2.\nOn day two, the radioactive uptake assay could be performed. The cell culture media was removed by aspiration and cells were incubated for 20 min at 37 °C and 5% CO2 with a basal medium (10 mM HEPES, pH 7.4, 1 mM CaCl2, 1 mM MgCl2, 2 mM KCl) containing 140 mM choline chloride to deplete intracellular […] ions. This was subsequently replaced with the uptake medium (basal medium + 140 mM NaCl, 25 μM cytochalasin B, 1 mg/ml BSA) containing either radioactive U-[^14C]-mannose (15,000 cpm/well) or 2-[^3H]-1,5-AG (30,000 cpm/well) and respectively, non-radioactive mannose or 1,5-AG, at the required concentration in the experiment. Importantly, when measuring the transport of mannose, the uptake media also contained 0.5 mM glucose. This resulted from the need to reduce the background transport of mannose in control HEK293T cells in order to optimize the transport assay for this sugar in our model cell lines. […]\nOnce the uptake medium was added to the cells, the plates were incubated at 37 °C in 5% CO2 during the required time. […] In each experiment, the transport activities were calculated after subtracting a “blank” value, corresponding to the radioactivity in the appropriate control cells (HEK293T cells that were stably or transiently transfected with one of the parent plasmids pEF6/MycHisA, pEF6HisB, pUB82 or pUB83 with no inserted cDNA) that were analyzed in parallel. […]"}, "hSGLT5 Ala522Val": {"biological_target": "T2, hSGLT5 Ala522Val (Homo sapiens, UniProt A0PJK1, A522V)", "T2 construct": "pUB83-hSGLT5-iso2 as well as the various SGLT5 mutants obtained were used to transduce HEK293T cells; expressed in transfected cells; host or cells: HEK293T, lentiviral transduction (pUB83)", "T2 sequence (A0PJK1 1-596 A522V)": "T1 sequence (A0PJK1 1-596 G471E) with E471G, A522V", "experiment": "Inhibition of 10 µM 1,5-AG transport by SGLT5 variant Ala522Val", "format": "cell-based", "conditions": "Fig. 5D", "experimental": "The transport experiments to study the specificity of SGLT4 or SGLT5, were performed in the presence of 10 µM U-[^14C + ^12C]-mannose (for SGLT4) or 2-[^3H + ^1H]-1,5-AG (for SGLT5) and increasing concentrations of various sugars tested. The transport experiments to study the inhibition of empagliflozin, dapagliflozin or remogliflozin, on the transport of 1,5-AG by SGLT5 or its variants were performed in the presence of 10 µM 2-[^3H + ^1H]-1,5-AG and increasing concentrations of the various gliflozins tested.\nSGLT5 mutants were created using the quick-change site directed mutagenesis method that enables effective mutagenesis without subcloning of the amplified PCR products. Complementary primer pairs carrying the desired replacements (Supplementary Table 3) were designed using an online tool (https://www.agilent.com/store/primerDesignProgram.jsp). The PCR protocol was carried out following the manufacturer instructions regarding the KOD HOT Start polymerase kit (TOYOBO™, Novagen). The amplified DNA was cleaned-up from the reactions constituents using the GeneJET PCR purification Kit (Thermo Scientific™) and the size of the DNA fragment were verified by DNA agarose-gel electrophoresis. […]"}},
  "note": "Changes are numbered by the printed parent chain.",
  "data": [
    {"compound": "OC[C@H]1OC[C@H](O)[C@@H](O)[C@@H]1O", "note": "[1,5-AG, 1,5-anhydroglucitol]", "values": [
      {"measurement": "Vmax", "setting": "hSGLT5 Gly471Glu; variant Gly471Glu", "result": "No transport"},
      {"measurement": "effect of mutation on ability of SGLT5 to transport 1,5-AG", "setting": "hSGLT5 Gly471Glu; variant Gly471Glu", "result": "abolished"},
      {"measurement": "Km for 1,5-AG", "setting": "hSGLT5 Gly471Glu; variant Gly471Glu (rs61741107)", "result": "No transport"}
    ]},
    {"compound": "OC[C@H]1O[C@@H](c2ccc(Cl)c(Cc3ccc(O[C@H]4CCOC4)cc3)c2)[C@H](O)[C@@H](O)[C@@H]1O", "note": "[empagliflozin]", "values": [
      {"measurement": "effect of mutation on concentration of empagliflozin needed to inhibit SGLT5", "setting": "hSGLT5 Ala522Val", "result": "did not affect significantly"}
    ]}
  ]
}
